The structures appear in SMILES notation.

The source of these data is publication PMC9162962 (European Journal of Medicinal Chemistry, 2022).

The test deals with SARS-CoV-2 M^pro (Severe acute respiratory syndrome coronavirus 2, UniProt P0DTD1). It is filed as biochemical.

`NC(=S)N/N=C/c1ccc(-c2ccc(C(=O)O)c(O)c2)o1` [F8–B6, (E)-4-(5-((2-carbamothioylhydrazono)methyl)furan-2-yl)-2-hydroxybenzoic acid]: the “Effect of dithiothreitol (DTT) on inhibition” value is listed as “reverse the inhibitory effect”.
